# Data taken from paper PMC11062894, “Protein-based bandpass filters for controlling cellular signaling with chemical inputs” (Nature Chemical Biology, 2023).
# “And” between values parts separate entries of the source, which are not always exact repeats. Identical values can stand only once. “Also recorded” adds a separate entry of the source. Like-named read-outs stand apart in the source and are kept apart here.
# Experiments:
# [1] = molecular target: GEMS receptors with BclXL:LD3 in HEK293T cells (Homo sapiens, UniProt Q07817); type: cell-based
# GEMS receptors with BclXL:LD3 in HEK293T cells, sequence (Q07817 whole entry): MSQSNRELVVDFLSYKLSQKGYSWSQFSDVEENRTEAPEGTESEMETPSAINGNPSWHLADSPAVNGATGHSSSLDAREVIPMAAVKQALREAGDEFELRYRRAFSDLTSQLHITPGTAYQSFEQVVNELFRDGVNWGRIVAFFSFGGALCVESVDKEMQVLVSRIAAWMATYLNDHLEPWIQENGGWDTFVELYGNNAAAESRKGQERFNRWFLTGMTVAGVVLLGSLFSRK
# Experimental: HEK293T cells were seeded in a 96-well plate 24 h before transfection. The transfection mix in each well consisted of 3 ng of constitutive human CMV promoter driven mammalian STAT3 expression vector (PhCMV-STAT3-pA), 30 ng of STAT3-induced reporter expression (OStat3-PhCMVmin-SEAP-pA) and 50 ng of expression vectors for each GEMS receptor chain (PSV40-IgK-(drughigh receptor)-EpoRm-IL-6RBm-pA and PSV40-IgK-(druglow receptor-GGGGSX3-LD3)-EpoRm-IL-6RBm-pA). For the specific drughigh receptor and druglow receptor used in the different cellular assays, they are indicated as wild type or with mutations. Then, plasmid DNA was mixed with 50 μl opti-MEM (Thermo Fisher) and 600 ng of polyethyleneimine (Polysciences, catalog no. 24765-1). […]
# (§1) SEAP activity (U l^−1) in cell culture supernatants was quantified by kinetic measurements at 405 nm (1 minute per measurement for 30 cycles) of absorbance increase due to phosphatase-mediated hydrolysis of para-nitrophenyl phosphate (pNPP). […]
# production of HEK293T cells. […] SEAP quantifications were performed to measure the protein production and WST-8 was used to test the cell proliferation. For cell proliferation assay, WST-8 was added after 24 hours of drug incubation, and measured its absorbance at 450 nm 4 hours later. […]
# [2] = molecular target: GEMS receptors with Bcl2:LD3 in HEK293T cells (Homo sapiens, UniProt P10415); assay: GEMS SEAP reporter assay, Bcl2:LD3 complex disruption; type: cell-based; design: key: SEAP activity in U/L; conditions: Supp Fig 3a
# GEMS receptors with Bcl2:LD3 in HEK293T cells, sequence (P10415 whole entry): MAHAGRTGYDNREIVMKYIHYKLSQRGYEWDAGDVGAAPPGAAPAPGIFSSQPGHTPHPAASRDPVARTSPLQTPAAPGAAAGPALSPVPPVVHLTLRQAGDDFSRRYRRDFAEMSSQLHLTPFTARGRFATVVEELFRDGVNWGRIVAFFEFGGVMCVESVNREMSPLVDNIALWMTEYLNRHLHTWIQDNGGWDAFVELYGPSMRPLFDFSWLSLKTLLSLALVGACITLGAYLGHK
# Experimental: (§2) HEK293T cells were seeded in a 96-well plate 24 h before transfection. The transfection mix in each well consisted of 3 ng of constitutive human CMV promoter driven mammalian STAT3 expression vector (PhCMV-STAT3-pA), 30 ng of STAT3-induced reporter expression (OStat3-PhCMVmin-SEAP-pA) and 50 ng of expression vectors for each GEMS receptor chain (PSV40-IgK-(drughigh receptor)-EpoRm-IL-6RBm-pA and PSV40-IgK-(druglow receptor-GGGGSX3-LD3)-EpoRm-IL-6RBm-pA). For the specific drughigh receptor and druglow receptor used in the different cellular assays, they are indicated as wild type or with mutations. Then, plasmid DNA was mixed with 50 μl opti-MEM (Thermo Fisher) and 600 ng of polyethyleneimine (Polysciences, catalog no. 24765-1). For drug treatment experiments, drugs were added 12 h post-transfection and incubated with cells for 24 h before the SEAP reporter detection assay.
# as §1
# [3] = tested on: GEMS receptors with CBPnavi (BclXL–LD3 and Bcl2), STAT3-driven SEAP in HEK293T cells; assay: GEMS SEAP reporter assay, CBPnavi; type: cell-based
# Experimental: as §2, with “Then, plasmid DNA was mixed with 50 μl opti-MEM (Thermo Fisher) and 600 ng of polyethyleneimine (Polysciences, catalog no. 24765-1).” left out
# Binding affinities of SPR drug competition assays were calculated using three-parameter nonlinear regression in GraphPad Prism (v.8.3.0). Representative data of cell assays are presented as individual values and mean values (bars). n = 3 refers to biological replicates. All IC50 or EC50 values of cell assays reported were calculated using four-parameter nonlinear regression ± s.d. Bandpass features of cutoff concentrations and Bandwidth90% were estimated based on the curve fitted using bell-shaped curve nonlinear regression in GraphPad Prism (v.8.3.0).
# LD3 [4] = assay: SPR drug sensitivity of drug receptor variants (5 µM analyte mixed with 10 µM inhibitor, LD3 immobilized chip); type: binding; conditions: for drug resistance to venetoclax (binding response to LD3): 5 µM Bcl2 or variant + 10 µM Venetoclax
# Experimental: Drug IC50 values for disrupting heterodimers were measured on a Biacore 8K device. A 5 µM portion of analyte was mixed with 10 µM of BclXL or Bcl2 inhibitors according to the analyte. The mixtures of analyte and drug were injected onto the LD3 immobilized channel. […]
# (§3) Bcl2high-v(2,4,5) measured by SPR. 5 μM of Bcl2 or indicated variants were mixed with 10 μM of […]
# LD3 [5] = assay: SPR assay for protein–protein binding affinities (drug receptor variants over immobilized LD3); design: unit not given here; conditions: Supp Fig 6a
# Experimental: SPR measurements were performed on a Biacore 8K device (GE Healthcare). The mutual designed binder (LD3) was immobilized on a CM5 chip (GE Life Science) as a ligand with the concentration at 5 μg ml^−1 for 120 s contact time in pH 4.5 sodium acetate solutions. Serial dilutions of the analytes (BclXL or Bcl2 and their variants) in HBS-EP buffer (10 mM HEPES, 150 mM NaCl, 3 mM EDTA and 0.005% surfactant P20; GE Life Science) were flowed over the immobilized chips. After each injection cycle, surface regeneration was performed using 10 mM NaOH (pH 11.95). Affinities (Kd) were obtained using a steady binding model of the equilibrium model with Biacore 8K evaluation software. […]
# Dissociation constant measurement of BclXLhigh-v(1-3) and LD3. Equilibrium curves are fitted using
# BclXLhigh-v1 (purple), BclXLhigh-v2 (blue), […]
# Supplementary Figure 6: Binding affinities and drug resistances of Bcl2high-v(2,4,5) assessed by
# a) Measurement of dissociation constants for Bcl2high-v(2,4,5) and LD3 interactions. Equilibrium curves
# as §3
# [6] = tested on: GEMS receptors with CBPvene (Bcl2–LD3 and Bcl2high variants), STAT3-driven SEAP in HEK293T cells; assay: GEMS SEAP reporter assay, CBPvene (Bcl2high, LD3-v and Bcl2-v variants) with venetoclax; type: cell-based; conditions: Supp Fig 5c; for behavior of Bcl2high variants screened in CBP constructs: venetoclax exceeding 100 nM
Compound,drug resistance to venetoclax (binding response to LD3) (LD3 [4]),SPR equilibrium binding response to LD3 (LD3 [5]; head: Venetoclax (nM) 1),"SEAP, screening of Bcl2high variants (raw) ([6]; Venetoclax 0)","SEAP, screening of Bcl2high variants, Normalized ([6]; Venetoclax 0)","SEAP, screening of Bcl2high variants (raw) ([6]; Venetoclax 0.0001)","SEAP, screening of Bcl2high variants, Normalized ([6]; Venetoclax 0.0001)","SEAP, screening of Bcl2high variants (raw) ([6]; Venetoclax 0.001)","SEAP, screening of Bcl2high variants, Normalized ([6]; Venetoclax 0.001)","SEAP, screening of Bcl2high variants (raw) ([6]; Venetoclax 0.01)","SEAP, screening of Bcl2high variants, Normalized ([6]; Venetoclax 0.01)","SEAP, screening of Bcl2high variants (raw) ([6]; Venetoclax 0.1)","SEAP, screening of Bcl2high variants, Normalized ([6]; Venetoclax 0.1)","SEAP, screening of Bcl2high variants (raw) ([6]; Venetoclax 1)","SEAP, screening of Bcl2high variants, Normalized ([6]; Venetoclax 1)","SEAP, screening of Bcl2high variants (raw) ([6]; Venetoclax 10)","SEAP, screening of Bcl2high variants, Normalized ([6]; Venetoclax 10)","SEAP, screening of Bcl2high variants (raw) ([6]; Venetoclax 100)","SEAP, screening of Bcl2high variants, Normalized ([6]; Venetoclax 100)","SEAP, screening of Bcl2high variants (raw) ([6]; Venetoclax 1000)","SEAP, screening of Bcl2high variants, Normalized ([6]; Venetoclax 1000)",further results
CC1(C)CCC(c2ccc(Cl)cc2)=C(CN2CCN(c3ccc(C(=O)NS(=O)(=O)c4ccc(N[C@H](CCN5CCOCC5)CSc5ccccc5)c(S(=O)(=O)C(F)(F)F)c4)cc3)CC2)C1 [Navitoclax],–,–,–,–,–,–,–,–,–,–,–,–,–,–,–,–,–,–,–,–,"more potent activity to BclXL than to Bcl2 [1]: approximately 4.4 fold; dose response (SEAP) ([2]; Navitoclax 1 nM): 217.89 and 244.414 and 201.569; dose response (SEAP) ([2]; Navitoclax 3.18 nM): 251.97 and 247.153 and 223.02; dose response (SEAP) ([2]; Navitoclax 10 nM): 225.391 and 249.837 and 220.973; dose response (SEAP) ([2]; Navitoclax 31.8 nM): 203.543 and 185.176 and 172.987; dose response (SEAP) ([2]; Navitoclax 100 nM): 207.157 and 228.932 and 148.919; dose response (SEAP) ([2]; Navitoclax 318 nM): 189.257 and 207.554 and 159.852; dose response (SEAP) ([2]; Navitoclax 1000 nM): 160.635 and 174.477 and 98.5023; dose response (SEAP) ([2]; Navitoclax 3180 nM): 138.28 and 140.892 and 97.3043; dose response (SEAP) ([2]; Navitoclax 10000 nM): 109.056 and 131.507 and 65.8832; Dip (bell-shaped fit, best-fit value) ([3]; CBPnavi, Fig 3c): 146.8; Plateau1 (bell-shaped fit, best-fit value) ([3]; CBPnavi, Fig 3c): 13.3; Plateau2 (bell-shaped fit, best-fit value) ([3]; CBPnavi, Fig 3c): 20.77; nH1 (bell-shaped fit, best-fit value) ([3]; CBPnavi, Fig 3c): -2.607; nH2 (bell-shaped fit, best-fit value) ([3]; CBPnavi, Fig 3c): -2.347; EC50 ([3]; Homo sapiens, HEK-293T, read-out: EC50_1 (bell-shaped fit, best-fit value)): 66.5 nM; EC50 ([3]; Homo sapiens, HEK-293T, read-out: EC50_2 (bell-shaped fit, best-fit value)): 2850 nM; EC50 ([3]; Homo sapiens, HEK-293T, read-out: EC50 of the ON phase): 65 nM; IC50 ([3]; Homo sapiens, HEK-293T, read-out: IC50 of the OFF phase): 2820 nM"
"Bcl2: wild-type Bcl2, druglow receptor",completely inhibited,–,–,–,–,–,–,–,–,–,–,–,–,–,–,–,–,–,–,–,–
Bcl2high-v4: Bcl2 variant (G101V),intermediate binding responses; also recorded: more resistant than Bcl2high-v2,2.1472,6.603,2.711,4.145,0,8.202,4.476,7.174,3.342,7.666,3.884,5.264,1.235,24.5053,22.4596,94.7979,100,68.7379,71.253,SPR equilibrium binding response to LD3 (LD3 [5]; head: Venetoclax (nM) 3.9): 10.112; SPR equilibrium binding response to LD3 (LD3 [5]; head: Venetoclax (nM) 15.6): 33.8883; SPR equilibrium binding response to LD3 (LD3 [5]; head: Venetoclax (nM) 62.5): 70.0059; behavior of Bcl2high variants screened in CBP constructs [6]: sharp decrease
Bcl2high-v5: Bcl2 variant (D103Y),intermediate binding responses,0.849,2.765,3.49,2.523,2.743,3.266,5.042,2.791,3.572,1.758,0.3721,1.638,0,7.093,16.9022,33.9111,100,29.4352,86.1311,SPR equilibrium binding response to LD3 (LD3 [5]; head: Venetoclax (nM) 3.9): 3.873; SPR equilibrium binding response to LD3 (LD3 [5]; head: Venetoclax (nM) 15.6): 14.2982; SPR equilibrium binding response to LD3 (LD3 [5]; head: Venetoclax (nM) 62.5): 37.6477; behavior of Bcl2high variants screened in CBP constructs [6]: sharp decrease
Bcl2high-v7: Bcl2 variant (D103E),–,–,6.691,0,7.426,0.7213,7.62,0.9112,12.5658,5.763,10.093,3.337,14.5573,7.717,26.197,19.1352,97.9682,89.5427,108.628,100,–
"BclXL: wild-type BclXL, druglow receptor",–,–,–,–,–,–,–,–,–,–,–,–,–,–,–,–,–,–,–,–,drug resistance to A-1155463 (binding response to LD3) (LD3 [4]; 5 µM BclXL or variant + 10 µM A-1155463): completely inhibited
